O=P(Oc1ccccc1)(Oc1ccccc1)N1CCN(P(=O)(Oc2ccccc2)Oc2ccccc2)CC1
solubility (mole fraction)
Conditions | in 1-methoxy-2-propanol | in 1-methoxy-2-propyl acetate | in 1-propoxy-2-propanol | in 2-(2-methoxypropoxy) propanol
293.15 K | 0.000356 | 0.000351 | 0.000353 | 0.000974
298.15 K | 0.000447 | 0.000443 | 0.000445 | 0.00117
303.15 K | 0.000589 | 0.000517 | 0.000564 | 0.00139
308.15 K | 0.000782 | 0.00063 | 0.000715 | 0.00167
313.15 K | 0.00102 | 0.000762 | 0.000893 | 0.00199
318.15 K | 0.00132 | 0.000945 | 0.00112 | 0.00236
323.15 K | 0.00168 | 0.00115 | 0.00141 | 0.0029
328.15 K | 0.00215 | 0.00141 | 0.00177 | 0.00344
333.15 K | 0.00282 | 0.0017 | 0.00219 | 0.00408
338.15 K | 0.00367 | 0.00204 | 0.00275 | 0.00474
343.15 K | 0.00457 | 0.00248 | 0.00339 | 0.00562

O=P(NCc1cccc(CNP(=O)(Oc2ccccc2)Oc2ccccc2)c1)(Oc1ccccc1)Oc1ccccc1
solubility (mole fraction)
Conditions | in 1-methoxy-2-propanol | in 1-methoxy-2-propyl acetate | in 1-propoxy-2-propanol | in 2-(2-methoxypropoxy) propanol
293.15 K | 0.000609 | 0.00319 | 0.000508 | 0.00267
298.15 K | 0.000758 | 0.00373 | 0.000636 | 0.00331
303.15 K | 0.000936 | 0.0043 | 0.000766 | 0.00401
308.15 K | 0.00114 | 0.0049 | 0.000964 | 0.00487
313.15 K | 0.00138 | 0.00547 | 0.00121 | 0.00584
318.15 K | 0.00169 | 0.00635 | 0.00144 | 0.00714
323.15 K | 0.00204 | 0.00708 | 0.00182 | 0.00829
328.15 K | 0.00255 | 0.0079 | 0.00216 | 0.00995
333.15 K | 0.00305 | 0.00891 | 0.00259 | 0.0116
338.15 K | 0.00374 | 0.01 | 0.00316 | 0.0138
343.15 K | 0.00432 | 0.0115 | 0.00374 | 0.0156

From BigSolDB 2.1
